Laboratory results reported in PubChem BioAssay AID540271 (Broad Institute, 2011).

system: S. cerevisiae expressing PfHSP40, growth rescue, plate reader; assay: Yeast growth rescue from Plasmodium falciparum HSP40 toxicity, dose response confirmatory, plate reader (AID 540271);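 further: yeast growth read after three days of incubation at 30 °C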

**Q.** Which AC50 does the source give for `COc1cc(OC)c(-c2c3cc(O)c(=O)cc-3oc3cc(O)c(O)cc23)cc1OC` here?
**A.** The AC50 was 1.67 µM.

**Q.** With `COc1ccc2c(c1)OC[C@H]1[C@H]2N2C(=O)c3cc(Cl)ccc3NC(=O)[C@@]2(C)[C@H]1c1ccccc1` as the molecule, how does the AC50 read?
**A.** Its AC50 is 4.63 µM.

**Q.** Which AC50 does the source give for `Cc1cc(NS(=O)(=O)c2ccc(C3CCCCC3)cc2)no1` here?
**A.** Its AC50 is 5.38 µM.

**Q.** `COc1ccc(-c2cc(C(=O)N3CCN(c4ccccc4F)CC3)c3ccccc3n2)c(OC)c1` was tested. Which AC50 did it give?
**A.** Its AC50 is 5.68 µM.

**Q.** Which AC50 does the source give for `CCCOc1ccc(S(=O)(=O)n2cc(F)c(=O)[nH]c2=O)cc1` here?
**A.** The AC50 was 3.66 µM.

**Q.** Which AC50 does the source give for `CCCCNC(=S)N/N=C1\CCCCc2ccccc21` here?
**A.** Its AC50 is 10.3 µM.

**Q.** How did the AC50 turn out when `Clc1nc(-c2ccccn2)nc2scc(-c3ccccc3)c12` was run?
**A.** The AC50 was 5.78 µM.

**Q.** `Cn1ccc(=Nc2ccc(NC(=O)c3ccc(N=c4ccn(C)c5ccc([N+](=O)[O-])cc45)cc3)cc2)cc1` was tested. Which AC50 did it give?
**A.** Its AC50 is 6.48 µM.

**Q.** With `COC(OC)c1ccc(C#N)c(SCc2ccccc2)n1` as the molecule, how does the AC50 read?
**A.** The AC50 was 7.52 µM.

**Q.** Which AC50 does the source give for `O=c1c2ccccc2nc(-c2cccc(Cl)c2)n1O` here?
**A.** The AC50 was 3.21 µM.

**Q.** How did the AC50 turn out when `C[C@H](O)[C@H]1CC[C@H]2[C@@H]3CCC4=CC(=O)CC[C@]4(C)[C@H]3CC[C@]12C` was run?
**A.** Its AC50 is 6.85 µM.

**Q.** With `CCCCCCC(Cl)(Cn1ccnc1)c1ccccc1` (centres undefined) as the molecule, how does the AC50 read?
**A.** The AC50 was 6.48 µM.

**Q.** For `O=[N+]([O-])c1ccc(S(=O)(=O)c2ccccc2)nc1`, which AC50 is on record?
**A.** The AC50 was 2.23 µM.

**Q.** With `CCOC(=O)C1=C(Cc2ccc(OC)cc2)C(=O)c2ccccc2C1=O` as the molecule, how does the AC50 read?
**A.** The AC50 was 5.4 µM.

**Q.** Which AC50 does the source give for `Cc1ccc(-c2nn(C(C)(C)C)c3ncnc(N)c23)cc1` here?
**A.** The AC50 was 1.28 µM.

**Q.** Which AC50 does the source give for `CCOC(=O)c1cc2c(=Cc3ccc(N(C)C)cc3)c3ccccc3n2[n+]1C` here?
**A.** Its AC50 is 3.75 µM.

**Q.** How did the AC50 turn out when `N#C/C(=C\Nc1ccccc1O)c1nc2ccccc2o1` was run?
**A.** Its AC50 is 9.96 µM.

**Q.** Which AC50 does the source give for `CN(C)S(=O)(=O)c1cccc(NC(=S)NNC(=O)c2cc3ccccc3cc2O)c1` here?
**A.** Its AC50 is 2.86 µM.

**Q.** How did the AC50 turn out when `CCN(CC)C(=O)CSc1ncnc2sc(-c3ccccc3)cc12` was run?
**A.** Its AC50 is 8.72 µM.

**Q.** Which AC50 does the source give for `COc1nc(NC23CC4CC(CC(C4)C2)C3)nc(OC)n1` here?
**A.** Its AC50 is 10.9 µM.

**Q.** `C=C(C)COc1ccc(-c2[nH]ncc2-c2ccccc2)c(O)c1` was tested. Which AC50 did it give?
**A.** The AC50 was 5.52 µM.

**Q.** Which AC50 does the source give for `O=C1N(c2ccc(Cl)cc2)C(c2cccnc2)N2CCCN12` (centres undefined) here?
**A.** Its AC50 is 6.03 µM.

**Q.** How did the AC50 turn out when `COc1ccc(O)c(C(=O)CC(=O)c2ccccc2C)c1` was run?
**A.** The AC50 was 6.31 µM.

**Q.** With `O=C1C(=C(I)I)c2ccccc2-c2ccccc21` as the molecule, how does the AC50 read?
**A.** Its AC50 is 5.61 µM.

**Q.** With `COc1ccc(-c2oc3ccccc3c2C#Cc2cncn2C)cc1` as the molecule, how does the AC50 read?
**A.** Its AC50 is 4.94 µM.

**Q.** Which AC50 does the source give for `CCCC(C)Sc1nc2c([nH]1)c(=S)n(C)c(=O)n2C` (centres undefined) here?
**A.** Its AC50 is 8.18 µM.

**Q.** How did the AC50 turn out when `CC1=CC(C)(C)N(S(=O)(=O)c2ccc(C)cc2)c2ccc(C)cc21` was run?
**A.** The AC50 was 7.54 µM.

**Q.** With `O=C1c2ccccc2-n2c1nc1ccccc1c2=O` as the molecule, how does the AC50 read?
**A.** Its AC50 is 1.83 µM.

**Q.** For `CC(=O)Nc1cccc(-c2cc(-c3c(Cl)cccc3Cl)no2)c1`, which AC50 is on record?
**A.** Its AC50 is 3.12 µM.

**Q.** With `COc1ccc2c(c1)OC[C@H]1[C@H]2N2C(=O)c3cc(C)ccc3NC(=O)[C@@]2(C)[C@H]1c1ccccc1` as the molecule, how does the AC50 read?
**A.** The AC50 was 6.11 µM.

**Q.** `Cc1cc(C(=O)N/N=C/c2ccc(O)c(O)c2O)c(C)n1-c1ccccc1` was tested. Which AC50 did it give?
**A.** The AC50 was 3.41 µM.

**Q.** Which AC50 does the source give for `CCC(C)Sc1cccc(-c2nc3ccccn3c2NCc2ccccc2)c1` (centres undefined) here?
**A.** The AC50 was 7.22 µM.

**Q.** `COc1ccc2cnn(CCOc3cc(C)ccc3C(C)C)c(=O)c2c1OC` was tested. Which AC50 did it give?
**A.** Its AC50 is 5.9 µM.

**Q.** How did the AC50 turn out when `CNc1cc(CSC)nc(SCc2ccc(Cl)cc2Cl)n1` was run?
**A.** Its AC50 is 4.18 µM.

**Q.** How did the AC50 turn out when `Cc1c(C(=O)O)cccc1-c1ccc(/C=N/Nc2ccc(Br)cc2)o1` was run?
**A.** The AC50 was 6.31 µM.

**Q.** With `CC1=C(C)/C(=N\OS(=O)(=O)c2ccc(C)cc2)C=CC1=O` as the molecule, how does the AC50 read?
**A.** The AC50 was 5 µM.

**Q.** With `Oc1ccc(-c2nc3ccccc3s2)c(O)c1` as the molecule, how does the AC50 read?
**A.** Its AC50 is 7.43 µM.

**Q.** Which AC50 does the source give for `Cc1c(C(=O)NCCSCc2cccc(C(F)(F)F)c2)cnn1-c1ccc(Cl)cc1` here?
**A.** Its AC50 is 6.1 µM.

**Q.** How did the AC50 turn out when `Cc1csc(NC(=O)C(C)Oc2ccc(Cl)cc2C)n1` (centres undefined) was run?
**A.** Its AC50 is 8.4 µM.

**Q.** How did the AC50 turn out when `CC(C)(C)C(=O)C(Oc1ccc(Cl)cc1)n1cncn1` (centres undefined) was run?
**A.** The AC50 was 4.7 µM.

**Q.** How did the AC50 turn out when `CCCCC(=O)NC(c1ccco1)c1cc(Cl)c2cccnc2c1O` (centres undefined) was run?
**A.** The AC50 was 2 µM.

**Q.** For `Cc1cc(C(=O)COC(=O)Cc2n[nH]c(=O)c3ccccc23)c(C)n1-c1cccc(C(F)(F)F)c1`, which AC50 is on record?
**A.** Its AC50 is 6.72 µM.

**Q.** How did the AC50 turn out when `Cc1[nH]n(-c2cccc3ccccc23)c(=O)c1/C=N/NC(=O)c1cccc([N+](=O)[O-])c1` was run?
**A.** The AC50 was 1.48 µM.

**Q.** `O=C(CN1CC[n+]2c(-c3cccs3)csc21)c1ccc(-c2ccccc2)cc1` was tested. Which AC50 did it give?
**A.** Its AC50 is 7.25 µM.

**Q.** Which AC50 does the source give for `O=C(Nc1cccc(-c2nc3ccccc3s2)c1)c1cccs1` here?
**A.** The AC50 was 5.98 µM.

**Q.** Which AC50 does the source give for `CC1CCc2c(C(=O)Nc3ccccn3)csc2C1` (centres undefined) here?
**A.** The AC50 was 9.29 µM.

**Q.** Which AC50 does the source give for `O=NN(CCc1ccncc1)c1ccc(OCc2ccccc2)cc1` here?
**A.** The AC50 was 5.81 µM.

**Q.** For `O=C(C1CCN(C2CC(=O)N(c3cccc(Cl)c3)C2=O)CC1)N1CCCC1` (centres undefined), which AC50 is on record?
**A.** Its AC50 is 6.02 µM.

**Q.** `CN(C)c1ccc(C=c2c3ccccc3n3c2cc(-c2ccc(Cl)cc2)[n+]3C)cc1` was tested. Which AC50 did it give?
**A.** Its AC50 is 7.4 µM.

**Q.** `CCn1c2ccc(C)cc2c2nc3cc(C(=O)O)ccc3nc21` was tested. Which AC50 did it give?
**A.** Its AC50 is 2.57 µM.

**Q.** How did the AC50 turn out when `COc1ccc(CNc2ncnc3sccc23)cc1` was run?
**A.** Its AC50 is 4.38 µM.

**Q.** For `CN(C)c1nc(SCc2ccc(Cl)cc2)nc2c1CCCC2`, which AC50 is on record?
**A.** The AC50 was 5.58 µM.

**Q.** For `c1ccc(-c2ccc(OCCCn3cncn3)cc2)cc1`, which AC50 is on record?
**A.** Its AC50 is 5.48 µM.

**Q.** `COc1ccc(N(C(=O)c2ccncc2)S(=O)(=O)c2ccccc2)cc1` was tested. Which AC50 did it give?
**A.** The AC50 was 2.4 µM.

**Q.** With `CC1CCN(c2ccc3c(c2)S(=O)(=O)c2ccccc2C3=O)CC1` as the molecule, how does the AC50 read?
**A.** Its AC50 is 9.89 µM.

**Q.** `CCOc1cc([N+](=O)[O-])cc(/C=N/NC(=O)c2c(-c3ccccc3)noc2C)c1O` was tested. Which AC50 did it give?
**A.** Its AC50 is 4.9 µM.

**Q.** `O=Cc1ccc(O)c2ncccc12` was tested. Which AC50 did it give?
**A.** Its AC50 is 0.366 µM.

**Q.** Which AC50 does the source give for `C(=N\Nc1nncc2ccccc12)/c1ccccn1` here?
**A.** Its AC50 is 4.74 µM.

**Q.** For `COc1ccc(O)c(C(=O)CC(=O)c2ccc(F)cc2)c1`, which AC50 is on record?
**A.** Its AC50 is 0.977 µM.
